In patent US6277854A, “Tricyclic antitumor farnesyl protein transferase inhibitors” (Schering Corporation, priority 1999, dated 2001) one finds IC50 data, which are given here for eleven molecules.

The target of assay [1] is farnesyl protein transferase. The assay can be described thus: In vitro enzyme assay: inhibition of farnesyl protein transferase (FPT), [3H]farnesyl transfer to Ras-CVLS. Format: biochemical, rat (brain); human (expressed in E. coli). The source says: 1. In vitro enzyme assays: Inhibition of famesyl protein transferase and geranylgeranyl protein transferase.
Farnesyl protein transferase (FPT) was partially purified from rat brain by ammonium sulfate fractionation followed by Q-Sepharose (Pharmacia, Inc.) anion exchange chromatography essentially as described by Yokoyama et al (Yokoyama, K., et al., (1991), A protein geranylgeranyltransferase from bovine brain: Implications for protein prenylation specificity, Proc. Natl. Acad. Sci USA 88: 5302-5306, the disclosure of which is incorporated herein by reference thereto). Human famesyl protein transferase was also expressed in E. coli, using cDNA clones encoding both the a and b subunits. The methods used were similar to those published (Omer, C. et al., (1993), Characterization of recombinant human famesyl protein transferase: Cloning, expression, farnesyl diphosphate binding, and functional homology with yeast prenyl-protein transferases, Biochemistry 32:5167-5176). Human famesyl protein transferase was partially-purified from the soluble protein fraction of E. coli as described above. […] Two forms of val^12 -Ha-Ras protein were prepared as substrates for these enzymes, differing in their carboxy terminal sequence. One form terminated in cysteine-valine-leucine-serine (Ras-CVLS) the other in cystein-valine-leucine-leucine (Ras-CVLL). Ras-CVLS is a substrate for the famesyl protein transferase while Ras-CVLL is a substrate for geranylgeranyl protein transferase I. The cDNAs encoding these proteins were constructed so that the proteins contain an amino-terminal extension of 6 histidine residues. Both proteins were expressed in Escherichia coli and purified using metal chelate affinity chromatography. The radiolabelled isoprenyl pyrophosphate substrates, [^3 H]farnesyl pyrophosphate and [^3 H]geranylgeranyl pyrophosphate, were purchased from DuPon/New England Nuclear.
Several methods for measuring farnesyl protein transferase activity have been described (Reiss et al 1990, Cell 62: 81; Schaber et al 1990, J. Biol. Chem. 265: 14701; Manne et al 1990, PNAS 87: 7541; and Barbacid & Manne 1993, U.S. Pat. No. 5,185,248). […] The reaction was allowed to proceed for 30 minutes at room temperature and then stopped with 0.5 ml of 4% sodium dodecyl sulfate (SDS) followed by 0.5 ml of cold 30% TCA. Samples were allowed to sit on ice for 45 minutes and precipitated Ras protein was then collected on GF/C filter paper mats using a Brandel cell harvester. Filter mats were washed once with 6% TCA, 2% SDS and radioactivity was measured in a Wallac 1204 Betaplate BS liquid scintillation counter. Percent inhibition was calculated relative to the DMSO vehicle control.

Assay [2] deals with Ras processing (val12-Ha-Ras-CVLS) in COS monkey kidney cells. Nature of the assay: Cell-based assay: inhibition of Ras processing in COS cells (transient expression of val12-Ha-Ras-CVLS). To be noted: Primates. Here is the method:
Following electroporation, cells were plated into 6-well tissue culture dishes containing 1.5 ml of Dulbecco's-modified Eagle's media (GIBCO, Inc.) supplemented with 10% fetal calf serum and the appropriate farnesyl protein transferase inhibitors. After 24 hours, media was removed and fresh media containing the appropriate drugs was re-added.
48 hours after electroporation cells were examined under the microscope to monitor disordered cell growth induced by transforming Ras. Cells expressing transforming Ras become more rounded and refractile and overgrow the monolayer, reminiscent of the transformed phenotype. Cells were then photographed, washed twice with 1 ml of cold phosphate-buffered saline (PBS) and removed from the dish by scraping with a rubber policeman into 1 ml of a buffer containing 25 mM Tris, pH 8.0; 1 mM ethylenediamine tetraacetic acid; 1 mM phenylmethylsulfonyl fluoride; […]; and 0.1 mM pepstatin. Cells were lysed by homogenization and cell debris was removed by centrifugation at 2000×g for 10 min.
Cellular protein was precipitated by addition of ice-cold trichloroacetic acid and redissolved in […] of SDS-electrophoresis sample buffer. […] Proteins resolved on the gels were electroblotted onto nitrocellulose membranes for immunodetection.
After washing, membranes were incubated for one hour at room temperature with a 1:5000 dilution of secondary antibody, rabbit anti-rat IgG conjugated to horseradish peroxidase, in PBS containing 1% fetal calf serum. The presence of processed and unprocessed Ras-CVLS or Ras-CVLL was detected using a colorimetric peroxidase reagent (4-chloro-1-naphthol) as described by the manufacturer (Bio-Rad).

By IC50 is commonly meant the concentration at which inhibition is half-maximal. Consider `CN(C)CCCC(=O)N1CCC(C2c3ncc(Br)cc3CCc3cc(Cl)cc(Cl)c32)CC1` (single isomer, unassigned) [Example 6], for which the IC50 in assay [1] was 6.5 nM; in assay [2], 35 nM.
For the molecule `NC(=O)CCC(=O)N1CCC([C@H]2c3ncc(Br)cc3CCc3cc(Cl)cc(Br)c32)CC1` [Example 50, (+)-4-(3,10-DIBROMO-8-CHLORO-6,11-DIHYDRO-5H-BENZO[5,6]CYCLO-HEPTA[1,2-b]PYRIDIN-11(R)-YL)-GAMMA-OXO -1-PIPERIDININE BUTANAMIDE], in assay [1], half-maximal inhibition (IC50) was put at 14 nM.
For `COC(=O)CCCC(=O)N1CCC([C@H]2c3ncc(Br)cc3CCc3cc(Cl)cc(Br)c32)CC1` [Example 51, (+)-METHYL 4-(3,10-DIBROMO-8-CHLORO-6,11-DIHYDRO-5H-BENZO[5,6]CYCLO-HEPTA[1,2-b]PYRIDIN-11 (R)-YL)-DELTA-OXO-1-PIPERIDININE PENTANOATE], it took 19 nM to reach half-maximal inhibition in assay [1] (IC50).
`O=C(O)CCCC(=O)N1CCC([C@H]2c3ncc(Br)cc3CCc3cc(Cl)cc(Br)c32)CC1` [Example 52, (+)-SODIUM 4-(3,10-DIBROMO-8-CHLORO-6,11-DIHYDRO-5H-BENZO[5,6]CYCLO-HEPTA[1,2-b]PYRIDIN-11(R)-YL)-DELTA-OXO-1-PIPERIDININE PENTANOATE] came in with an IC50 in assay [1] of 44 nM.
In assay [1], `NC(=O)CCCC(=O)N1CCC([C@H]2c3ncc(Br)cc3CCc3cc(Cl)cc(Br)c32)CC1` [Example 53, (+)-4-(3,10-DIBROMO-8-CHLORO-6,11-DIHYDRO-5H-BENZO[5,6]CYCLO-HEPTA[1,2-b]PYRIDIN-11(R)-YL)-DELTA-OXO-1-PIPERIDININE PENTANAMIDE] came in with an IC50 of 10 nM.
In assay [1], `COC(=O)CCCCC(=O)N1CCC([C@H]2c3ncc(Br)cc3CCc3cc(Cl)cc(Br)c32)CC1` [Example 54, (+)-METHYL 4-(3,10-DIBROMO-8-CHLORO-6,11-DIHYDRO-5H-BENZO[5,6]CYCLO-HEPTA[1,2-b]PYRIDIN-11(R)-YL)-EPSILON-OXO-1-PIPERIDININE HEXANOATE] had a half-inhibitory concentration (IC50) of 15 nM.
In the case of `O=C(O)CCCCC(=O)N1CCC([C@H]2c3ncc(Br)cc3CCc3cc(Cl)cc(Br)c32)CC1` [Example 55, (+)-SODIUM 4-(3,10-DIBROMO-8-CHLORO-6,11-DIHYDRO-5H-BENZO[5,6]CYCLO-HEPTA[1,2-b]PYRIDIN-11(R)-YL)-EPSILON-OXO-1-PIPERIDININE HEXANOATE], the 50% inhibitory concentration (IC50) in assay [1] is 17 nM.
With `NC(=O)CCCCC(=O)N1CCC([C@H]2c3ncc(Br)cc3CCc3cc(Cl)cc(Br)c32)CC1` [Example 56, (+)-4-(3,10-DIBROMO-8-CHLORO-6,11-DIHYDRO-5H-BENZO[5,6]CYCLO-HEPTA[1,2-b]PYRIDIN-11(R)-YL)-EPSILON-OXO-1-PIPERIDININE HEXANAMIDE], 7 nM corresponded to half-maximal inhibition in assay [1] (IC50).
On to `COC(=O)CCCCCC(=O)N1CCC([C@H]2c3ncc(Br)cc3CCc3cc(Cl)cc(Br)c32)CC1` [Example 57, (+)-METHYL 4-(3,10-DIBROMO-8-CHLORO-6,11-DIHYDRO-5H-BENZO[5,6]CYCLO-HEPTA[1,2-b]PYRIDIN-11(R)-YL)-OMEGA-OXO-1-PIPERIDININE HEPTANOATE], for which, in assay [1], the IC50 stood at 11 nM.
Regarding `O=C(O)CCCCCC(=O)N1CCC([C@H]2c3ncc(Br)cc3CCc3cc(Cl)cc(Br)c32)CC1` [Example 58, (+)-SODIUM 4-(3,10-DIBROMO-8-CHLORO-6,11-DIHYDRO-5H-BENZO[5,6]CYCLO-HEPTA[1,2-b]PYRIDIN-11 (R)-YL)-OMEGA-OXO-1-PIPERIDININE HEPTANOATE], the results for the half-maximal inhibitory concentration (IC50) in assay [1] and in assay [2] were 9.1 nM and 300 nM, respectively.
For `NC(=O)CCCCCC(=O)N1CCC([C@H]2c3ncc(Br)cc3CCc3cc(Cl)cc(Br)c32)CC1` [Example 59, (+)-4-(3,10-DIBROMO-8-CHLORO-6,11-DIHYDRO-5H-BENZO[5,6]CYCLO-HEPTA[1,2-b]PYRIDIN-11(R)-YL)-OMEGA-OXO-1-PIPERIDININE HEPTANAMIDE], in that order: 3.3 nM and 15 nM.
